Legend:
Format in all cases: in vivo, human
SF-295 = assay: Hollow fiber assay in mice, SF-295; conditions: QD X 4, Day 4; for % T/C SF-295 IP: IP fibers; for % T/C SF-295 SC: SC fibers
Procedure: (§1) Compounds satisfying Formulas 1 and 2 also have been tested for in vivo activity in the hollow fiber assay. See Example 12 below for the procedure used for the in vivo tests. Each compound tested was tested against a minimum of 12 human cancer cell lines. Data is reported as % T/C (i.e., the […]) for each of the 2 compound doses against each of the cell lines with separate values calculated for the intraperitoneal and subcutaneous samples, with a target value for % T/C being about 50 or less.
(§2) Compounds were selected for further in vivo testing in standard subcutaneous xenograft models on the basis of several hollow fiber assay criteria. These criteria include: (1) a % T/C of 50 or less in 10 of the 48 possible test combinations (12 cell lines×2 sites×2 compound doses); (2) activity at a distance (intrapentoneal drug/subcutaneous culture) in a minimum of 4 of the 24 possible combinations; and/or (3) a net cell kill of 1 or more cell lines in either implant site. To simplify evaluation, a point system has been adopted which allows rapid assessment of a compound's activity. A value of 2 is assigned for each compound dose which results in a 50% or greater reduction in viable cell mass. The intraperitoneal and subcutaneous samples were scored separately so that criteria (1) and (2) could be evaluated. Compounds with a combined IP+SC score≧20, an SC score≧8, or a net cell kill of one or more cell lines were referred for xenograft testing. These criteria have been statistically validated by comparing the activity outcomes of greater than 80 randomly selected compounds in the hollow fiber assay and in the xenograft testing.
(§3) This example describes the method used for in vivo testing of mice. Human cancer cells were cultivated in polyvinylidene fluoride (PVDF) hollow fibers. A sample of each cancer cell line was implanted intraperitoneally and subcutaneously in mice. Each mouse received a total of 6 fibers, 3 intraperitoneally and 3 subcutaneously, representing 3 distinct cancer cell lines. Three mice were treated with compounds made according to the present invention at each of two test doses intraperitoneally using a QD×4 treatment schedule. […] Anticancer effects were assessed by determining viable cell mass for each of the coil line using a formazan dye (MTT) conversion assay. From this, the % TIC was calculated using the average optical density of the compound-treated samples divided by the average optical density of the vehicle controls. In addition, the net increase in cell mass was determined for each sample as samples of fiber cultures were assessed for viable cell mass on the day of implantation into mice. This allowed cytostatic and cytocidal capacities of these compounds to be assessed.

UACC-62 = assay: Hollow fiber assay in mice, UACC-62; conditions: QD X 4, Day 4; for % T/C UACC-62 IP: IP fibers; for % T/C UACC-62 SC: SC fibers
Procedure: as §1, §2, §3

NCI-H522 = assay: Hollow fiber assay in mice, NCI-H522; conditions: QD X 4, Day 4; for % T/C NCI-H522 IP: IP fibers; for % T/C NCI-H522 SC: SC fibers
Procedure: as §1, §2, §3

SW-620 = assay: Hollow fiber assay in mice, SW-620; conditions: QD X 4, Day 4; for % T/C SW-620 IP: IP fibers; for % T/C SW-620 SC: SC fibers
Procedure: as §1, §2, §3

NCI-H23 = assay: Hollow fiber assay in mice, NCI-H23; conditions: QD X 4, Day 4; for % T/C NCI-H23 IP: IP fibers; for % T/C NCI-H23 SC: SC fibers
Procedure: as §1, §2, §3

MDA-MB-435 = assay: Hollow fiber assay in mice, MDA-MB-435; conditions: QD X 4, Day 4; for % T/C MDA-MB-435 IP: IP fibers; for % T/C MDA-MB-435 SC: SC fibers
Procedure: as §1, §2, §3

MDA-MB-231 = assay: Hollow fiber assay in mice, MDA-MB-231; conditions: QD X 4, Day 4; for % T/C MDA-MB-231 IP: IP fibers; for % T/C MDA-MB-231 SC: SC fibers
Procedure: as §1, §2, §3

Which results are given for O=C(OC12CC3CC(CC(C3)C1)C2)c1ccc(NCc2cc(O)ccc2O)cc1 [Compound 6, 4′-adamantylbenzoate-1′-N-2,5-dihydroxybenzylamine]?
% T/C SF-295 IP (SF-295; 33.50 mg/kg/dose IP): >100%; % T/C SF-295 IP (SF-295; 50.00 mg/kg/dose IP): 88%; % T/C SF-295 SC (SF-295; 33.50 mg/kg/dose IP): >100%; % T/C SF-295 SC (SF-295; 50.00 mg/kg/dose IP): 88%; % T/C UACC-62 IP (UACC-62; 33.50 mg/kg/dose IP): >100%; % T/C UACC-62 IP (UACC-62; 50.00 mg/kg/dose IP): >100%; % T/C UACC-62 SC (UACC-62; 33.50 mg/kg/dose IP): 99%; % T/C UACC-62 SC (UACC-62; 50.00 mg/kg/dose IP): 99%; % T/C NCI-H522 IP (NCI-H522; 33.50 mg/kg/dose IP): 94%; % T/C NCI-H522 IP (NCI-H522; 50.00 mg/kg/dose IP): 48%; % T/C NCI-H522 SC (NCI-H522; 33.50 mg/kg/dose IP): 89%; % T/C NCI-H522 SC (NCI-H522; 50.00 mg/kg/dose IP): 89%; % T/C SW-620 IP (SW-620; 33.50 mg/kg/dose IP): >100%; % T/C SW-620 IP (SW-620; 50.00 mg/kg/dose IP): >100%; % T/C SW-620 SC (SW-620; 33.50 mg/kg/dose IP): 94%; % T/C SW-620 SC (SW-620; 50.00 mg/kg/dose IP): 80%; % T/C NCI-H23 IP (NCI-H23; 33.50 mg/kg/dose IP): 100%; % T/C NCI-H23 IP (NCI-H23; 50.00 mg/kg/dose IP): >100%; % T/C NCI-H23 SC (NCI-H23; 33.50 mg/kg/dose IP): >100%; % T/C NCI-H23 SC (NCI-H23; 50.00 mg/kg/dose IP): >100%; % T/C MDA-MB-435 IP (MDA-MB-435; 33.50 mg/kg/dose IP): >100%; % T/C MDA-MB-435 IP (MDA-MB-435; 50.00 mg/kg/dose IP): 72%; % T/C MDA-MB-435 SC (MDA-MB-435; 33.50 mg/kg/dose IP): 94%; % T/C MDA-MB-435 SC (MDA-MB-435; 50.00 mg/kg/dose IP): 99%; % T/C MDA-MB-231 IP (MDA-MB-231; 33.50 mg/kg/dose IP): >100%; % T/C MDA-MB-231 IP (MDA-MB-231; 50.00 mg/kg/dose IP): >100%; % T/C MDA-MB-231 SC (MDA-MB-231; 33.50 mg/kg/dose IP): 67%; % T/C MDA-MB-231 SC (MDA-MB-231; 50.00 mg/kg/dose IP): 92%

From patent US6943191B1, “Disubstituted lavendustin A analogs and pharmaceutical composition comprising the analogs” (The United States of America as represented by the …, priority 1998, dated 2005)
